According to patent US20120022121A1, “INDOLES, DERIVATIVES AND ANALOGS THEREOF AND USES THEREFOR” (priority 2007, published 2012):

What was measured:
[1] = system: DU-145; experiment: Cell viability SRB assay, 96 h; assay type: cell-based; conditions: Homo sapiens, DU-145, 96 h
Protocol: (§1) Cell viability (LNCaP, PC-3 prostate, DU145, PPC-1, and TSU-Pr1 prostate cancer cell lines, HT-29 colon cancer cell line, and MCF-7 breast cancer cell line) was quantitated using the sulforhodamine B (SRB) assay after 96 h coincubation with different concentrations of compound in 96-well plates. Cell viability of leukemia cells (K562 and doxorubicin-resistant K562/Dox) was quantitated by MTT assay after 96 h coincubation with different concentrations of compound in 96-well plates. Drug-induced apoptosis was determined by anti-histone ELISA assay and DNA laddering. Cell cycle progression was assessed by propidium iodide staining and fluorescence-activated cell sorting (FACS) analysis. In vitro tubulin polymerization assay was determined by CytoDYNAMIX ScreenTM3 (CDS-03) kits according to the manufacturer's instructions. Anti-apoptosis protein (Bcl-2 and Bcl-xl) and pro-apoptosis protein (Bax) were examined in LNCaP and PC-3 after 24 h incubation with different concentrations of compound 13 by Western blot assay. In vivo PC-3 xenograft studies were conducted by i.v. dosing of 50 mg/kg, 100 mg/kg and 150 mg/kg for 2 weeks.
(§2) Cells were plated in 96-well plates at a density of 800-5,000 cells/well, depending on the cell line, in their required growth media containing 10% fetal bovine serum. Preliminary studies were performed with each cell line using a variety of cell densities and incubation times to determine appropriate seeding densities. The compound of interest was dissolved in DMSO, diluted in cell culture medium (final DMSO concentration was less than 0.5% v/v), and added to quadruplicate wells at final concentrations ranging from 0 to 100 μM. Control wells to which only drug-free vehicle was added were included as negative controls.
(§3) Cells were incubated for 96 hour at 37° C. in a humidified atmosphere containing 5% carbon dioxide.
(§4) Cells were stained with SRB solution. […] WinNonlin was provided by a Pharsight Academic License to The Ohio State University.

[2] = system: LNCaP; experiment: Cell viability SRB assay, 96 h; assay type: cell-based; conditions: Homo sapiens
Protocol: as §1, §2, §3, §4

[3] = system: MCF-7; experiment: Cell viability SRB assay, 96 h; assay type: cell-based; conditions: Homo sapiens, MCF7; MCF-7, 96 h
Protocol: as §1, §2, §3, §4

[4] = system: PC-3; experiment: Cell viability SRB assay, 96 h; assay type: cell-based; conditions: Homo sapiens, PC-3, 96 h
Protocol: as §1, §2, §3, §4

[5] = system: PPC-1; experiment: Cell viability SRB assay, 96 h; assay type: cell-based; conditions: Homo sapiens, PPC-1, 96 h
Protocol: as §1, §2, §3, §4

[6] = system: A375; experiment: Cytotoxicity assay (SRB, 48 h); assay type: cell-based, human
[7] = system: WM164; experiment: Cytotoxicity assay (SRB, 48 h); assay type: cell-based, human; conditions: WM164 melanoma
[8] = system: LNCaP; experiment: Cytotoxicity assay (SRB, 96 h); assay type: cell-based; conditions: Homo sapiens
[9] = system: PC-3; experiment: Cytotoxicity assay (SRB, 96 h); assay type: cell-based; conditions: Homo sapiens, PC-3, 96 h
[10] = system: Du 145; experiment: Cytotoxicity assay (SRB, 96 h); assay type: cell-based; conditions: Homo sapiens; Du 145, 96 h
[11] = system: PPC-1; experiment: Cytotoxicity assay (SRB, 96 h); assay type: cell-based; conditions: Homo sapiens, PPC-1, 96 h
[12] = system: melanoma and prostate cancer cell lines; experiment: Cytotoxicity assay (SRB), summary over the cell lines of Table 3; assay type: cell-based; conditions: Homo sapiens
[13] = system: CV-1; experiment: Cell viability SRB assay, 96 h; assay type: cell-based; conditions: Cercopithecidae, CV-1 fibroblast cell line
Protocol: as §2, §3

[14] = system: TSU; experiment: Cell viability SRB assay, 96 h; assay type: cell-based; conditions: Homo sapiens, TSU (TSU-Pr1)
Protocol: as §1, §2, §3, §4

[15] = Rotarod performance; assay type: in vivo, ICR mice; conditions: 0.5 mg/kg i.p. q2d
Protocol: The training and rotarod test was conducted as described previously. Briefly, during the training phase for 2 consecutive days (3 trials/day), mice (10 mice/group) were trained to run in a rotarod apparatus without falling at a constant speed (12 rpm) for a maximum of 2 min. For the rotarod performance test, duration of each trial was less than 5 min. […] Tests were performed for 2 weeks (2 days/week). The animals were tested in three trials per day with an intertrial interval of 30 min. Animal performance was recorded as the average elapsed time for the mice to fall off.

[16] = Homo sapiens, A-375, 48 h, A375 melanoma

| SMILES | IC50 [1] | IC50 [2] | IC50 [4] | IC50 [5] | IC50 [8] | IC50 [9] | IC50 [10] | IC50 [11] | IC50 [12] | melting point | IC50 [6, 16] | IC50 ([7]; Homo sapiens, WM164, 48 h) | also measured |
| --- | --- | --- | --- | --- | --- | --- | --- | --- | --- | --- | --- | --- | --- |
| COc1cc(C(=O)c2cccc(-c3cc4cc(F)ccc4[nH]3)c2)cc(OC)c1OC [Compound 90, [3-(5-Fluoro-1H-indol-2-yl)-phenyl]-(3,4,5-trimethoxy-phenyl)-methanone] | 0.028 µM | 0.032 µM | 0.031 ± 0.004 µM | 0.028 µM | – | – | – | – | – | – | – | – | IC50 [3]: 0.039 µM |
| COc1ccc2cc(C(=O)c3cc(OC)c(OC)c(OC)c3)[nH]c2c1 [Compound 114, (6-Methoxy-1H-indol-2-yl)(3,4,5-trimethoxyphenyl)methanone] | – | – | – | – | > 10 µM | > 10 µM | > 10 µM | > 10 µM | > 10 µM | 167 to 169 °C | – | – | IC50 ([6]; Homo sapiens, A-375, A375 melanoma): > 10 µM; IC50 ([7]; Homo sapiens): > 10 µM |
| COc1cc(C(=O)c2cc3cc(Cl)ccc3[nH]2)cc(OC)c1OC [Compound 115, (5-Chloro-1H-indol-2-yl)(3,4,5-trimethoxyphenyl)methanone] | – | – | – | – | > 10 µM | > 10 µM | > 10 µM | > 10 µM | 1 to 10 µM | 252 to 254 °C | – | – | IC50 ([6]; A375 melanoma): 1.47 µM; IC50 [7]: 2.16 µM |
| COc1cc(C(=O)c2nc3ccccc3[nH]2)cc(OC)c1OC [Compound 118, (1H-benzo[d]imidazol-2-yl)(3,4,5-trimethoxyphenyl)methanone] | – | – | – | – | > 10 µM | > 10 µM | > 10 µM | > 10 µM | > 10 µM | 191 to 193 °C | > 10 µM | > 10 µM | – |
| COc1cc(C(=O)c2nc3ccccc3s2)cc(OC)c1OC [Compound 123a, Benzo[d]thiazol-2-yl(3,4,5-trimethoxyphenyl)methanone] | – | – | – | – | > 10 µM | > 10 µM | > 10 µM | > 10 µM | > 10 µM | 144 to 146 °C | > 10 µM | > 10 µM | – |
| COc1cc(C(=O)c2nc3ccccc3o2)cc(OC)c1OC [Compound 123b, Benzo[d]oxazol-2-yl(3,4,5-trimethoxyphenyl)methanone] | – | – | – | – | > 10 µM | > 10 µM | > 10 µM | > 10 µM | > 10 µM | 89 to 91 °C | > 10 µM | > 10 µM | – |
| COc1cc(C(O)(c2nc3ccccc3s2)c2nc3ccccc3s2)cc(OC)c1OC [Compound 127, Bis(benzo[d]thiazol-2-yl)(3,4,5-trimethoxyphenyl)methanol] | – | – | – | – | > 10 µM | > 10 µM | > 10 µM | > 10 µM | > 10 µM | 50 to 52 °C | > 10 µM | > 10 µM | – |
| c1ccc2c(Cc3c[nH]c4ccccc34)c[nH]c2c1 [Compound 128, di(1H-indol-3-yl)methane, reference compound] | 39.7 ± 2.6 µM | 5.8 ± 0.5 µM | 39.4 ± 1.7 µM | 31.8 ± 1.1 µM | – | – | – | – | – | – | – | – | IC50 [13]: > 100 µM; IC50 [14]: 45.7 ± 1.1 µM |
| O=S(=O)(c1ccccc1)n1cc(B(O)O)c2ccccc21 [Compound 129, reference compound] | 55.1 ± 2.5 µM | 18.3 ± 1.4 µM | 59.9 ± 1.8 µM | 41.1 ± 1.8 µM | – | – | – | – | – | – | – | – | IC50 [13]: > 100 µM; IC50 [14]: 39.3 ± 1.6 µM |
| CC[C@]1(O)C[C@H]2CN(CCc3c([nH]c4ccccc34)[C@@](C(=O)OC)(c3cc4c(cc3OC)N(C=O)[C@H]3[C@@](O)(C(=O)OC)[C@H](OC(C)=O)[C@]5(CC)C=CCN6CC[C@]43[C@@H]65)C2)C1 [vincristine] | – | – | – | – | – | – | – | – | – | – | – | – | rotarod performance ([15]; day 4 to day 14): impaired performance; mean time on the rotating rod ([15]; end of 2 weeks (vehicle 151 s)): 104 s |
